{
  "source": "patent US11305021B2",
  "about": "“Membrane-lytic block copolymers” (UNIVERSITY OF WASHINGTON, priority 2016, dated 2022)",
  "key": {"[1]": {"assay": "Assembly behavior of VIPER by TEM imaging and DLS analysis", "type": "physicochemical", "description": "To verify this hypothesized mechanism, the assembly behavior of VIPER at pH 7.4 and pH 5.7 was monitored by both transmission electron microscopy (TEM) imaging and dynamic light scattering (DLS) analysis. VIPER assembles into uniform spherical nanoparticles with diameter around 30 nm at pH 7.4 (FIGS. 2A and C for TEM and DLS, respectively).\nThe morphology of polymers and polyplexes under dried state were imaged on a JEOL 1140 TEM at an acceleration voltage of 100 kV. In order to observe the morphology of polymer assemblies under different pHs, the polymer solutions (1 mg/mL, in distilled water) were diluted with PB to pH 7.4 and 5.7. Then the resulting solutions (10 μL) were deposited on the top of the 400-mesh formvar/copper grids and incubated at room temperature for 30 min. After staining with uranyl acetate, the grids were allowed to air dry overnight. The preparation of polyplexes samples were the same as polymer samples."}, "[2]": {"test_system": "HeLa, KB, A549 and Z310 cells", "assay": "In vitro transfection with luciferase plasmid", "type": "cell-based", "description": "HeLa, KB, Z310 and A549 cells were seeded at a density of 25,000 cells/well in complete cell culture medium in a 24-well plate. Cells were firstly incubated at 37° C., 5% CO2 for 24 h. Polyplexes were prepared at different N/P ratios using 0.5 μg of pCMV-Luc2 pDNA in 10 μL total volume. Each sample was diluted to 200 μL with complete cell culture medium. The cells were rinsed once with PBS, followed by the addition of transfection solution. After incubation for 4 h, cells were washed with PBS twice and the polyplexes solution was replaced with complete cell culture medium. After additional 20 h incubation, luciferase activity was quantified with a luciferase assay kit (Promega Corp, Fitchburg, Wis.) according to the manufacturer's instruction, except that a freeze-thaw cycle at −80 OC was included after the addition of the lysis buffer to ensure complete cell lysis. Luminescence intensity was measured on the plate reader with integration for 1 s. The total protein content in each well was measured by a BCA Protein Assay Kit (Thermo Scientific, Rockford, Ill.) according to the manufacturer's instruction so that the luciferase activity was normalized to the total protein content in each well. Each sample was tested with a sample size (n)=3. The N/P ratio used for bPEI is 5, which was previous determined to show optimized transfection efficiency. […]"}, "[3]": {"test_system": "HeLa, KB, A549 and Z310 cells", "assay": "GFP transfection", "type": "cell-based", "settings": "GFP plasmid", "description": "The transfection with GFP (green fluorescence plasmid) on different cell lines was the same as that with luciferase plasmid. For analysis, cells were washed with PBS, trypsinized and pelleted at 300×g for 5 min at 4° C. The pellet was resuspended in 0.3 mL propidium iodide (PI) solution (1 μg/mL in 0.5% BSA in PBS), kept on ice and analyzed using flow cytometry, MACSQuant Analyzer (Miltenyi Biotec Inc., Auburn, Calif.). Intact cells were identified using the forward and side scatter data. The resulting cell population was gated into GFP+/PI+, GFP+/PI−, GFP−/PI+ and GFP−/PI− based on the green fluorescence and PI intensity from the control samples (cells transfected without the polymers but DNA only) and reported as the mean percentage of cell population that is GFP+/PI− including standard deviation (SD). All experiments were conducted in triplicate."}, "human red blood cells": {"test_system": "human red blood cells", "assay": "Hemolysis assay (acid-triggered membrane-lytic activity)", "type": "cell-based", "description": "Hemolysis assay was used to evaluate the acid-triggered membrane-lytic activity of the synthesized materials at pH 7.4 (extracellular pH) and 5.7 (endosomal pH). Briefly, plasma from human blood was removed by centrifugation. The red blood cells were washed three times with 150 mM NaCl, and resuspended into phosphate buffer (PB) at pH 7.4 or 5.7. The polymers at various concentrations ([…]) and 1% Triton X-100 as control, were added to the RBC suspensions in a 96-well conical plate and was allowed to incubate for 1 h at 37° C. After centrifugation, the released hemoglobin within the supernatant was measured by UV at 541 nm. Percent hemolysis was calculated relative to Triton X-100. Experiments were performed in triplicate."}},
  "note": "“Also recorded” adds a separate entry of the source.",
  "data": [
    {"substance": "P(OEGMA11-DMAEMA56)-b-p(DIPAMA33-PDSEMA-g-melittin)1) [VIPER]", "values": [
      {"measurement": "assemblies observed", "setting": "[1]; pH 5.7", "result": "no assemblies were observed"},
      {"measurement": "diameter of nanoparticles", "setting": "[1]; pH 7.4", "result": "around 30 nm"},
      {"measurement": "transfection efficiency compared to optimized LF formulations", "setting": "[2]; HeLa, KB and Z310 cells", "result": "improved transfection efficiency"},
      {"measurement": "luciferase activity compared to CP and bPEI", "setting": "[2]; all tested cell lines", "result": "orders of magnitude higher"},
      {"measurement": "fold more transfected cells compared to CP", "setting": "[3]", "result": "13- to 60 fold"},
      {"measurement": "fold more transfected cells compared to bPEI", "setting": "[3]", "result": "11- to 46 fold"},
      {"measurement": "transfection efficiency, GFP+ cells", "setting": "[3]; range over cell lines", "result": "36-77%"},
      {"measurement": "concentration for 50% lysis", "setting": "human red blood cells; pH 5.7", "result": 30, "unit": "µg/mL"},
      {"measurement": "concentration for complete lysis", "setting": "human red blood cells; pH 5.7", "result": 120, "unit": "µg/mL"},
      {"measurement": "cell lysis", "setting": "human red blood cells; pH 7.4, VIPER concentrations as high as 240 μg/mL", "result": "no significant cell lysis; also recorded: minimal membrane-lytic activity"}
    ]}
  ]
}
